Data as given in US8691811B2, “Quinazolinone linked pyrrolo[2,1-c][1,4]benzodiazepine hybrids as potential anticancer agents and process for the preparation thereof” (Council of Scientific & Industrial Research, priority 2008, dated 2014).

Experiments:
[1] = system: OVCAR-5; test: NCI cytotoxicity (SRB, 48 h), OVCAR-5; assay type: cell-based, human; conditions: OVCAR-5, ovarian
Protocol: (§1) The C8-linked quinazolinone-PBD hybrid (5d) has been tested against sixty human tumour cell lines derived from nine cancer types (leukemia, non-small cell lung cancer, colon cancer, CNS cancer, melanoma, ovarian cancer, renal cancer, prostate cancer and breast cancer) as per NCI protocol. For each compound, dose response curves for individual cell lines have been measured at a minimum of five concentrations at 10 fold dilutions. A protocol of 48 h continuous drug exposure has been used, and a sulforhodamine B (SRB) protein assay was used to estimate cell viability or growth. The concentration for 50% cell growth inhibition (GI50), total cell growth inhibition (TGI, 0% growth) and 50% cell death (LC50, […]) compared with the control has been calculated (Table-1). Compound 5d has been evaluated for their in vitro cytotoxicity in sixty cell lines from nine human cancer types of lung (Hop-62, NCI-H226, NCI-H522), leukemia (K-562, SR), colon (HCT-116, HCT-15, HCC-2998), CNS(SF-539), melanoma (SK-MEL-5, UACC-62, M14), ovarian (IGROV1), renal (A498), prostate (PC3) breast (BT-549, MDA-MB-435, HS578T) origin. The results are expressed as percent of cell growth determined relative to that of untreated control cells (Table 2). The representative compound 5d has shown significant cytotoxicity against some cancer cell lines.

[2] = system: MOLT-4; test: NCI cytotoxicity (SRB, 48 h), MOLT-4; assay type: cell-based, human; conditions: MOLT-4, leukemia
Protocol: as §1

[3] = system: HOP-92; test: NCI cytotoxicity (SRB, 48 h), HOP-92; assay type: cell-based, human; conditions: HOP-92, non-small cell lung
Protocol: as §1

[4] = system: LOX IMVI; test: NCI cytotoxicity (SRB, 48 h), LOX IMVI; assay type: cell-based, human; conditions: melanoma
Protocol: as §1

[5] = system: HCT-15; test: NCI cytotoxicity (SRB, 48 h), HCT-15; assay type: cell-based, human; conditions: HCT-15, colon
Protocol: as §1

[6] = system: Leukemia cell lines; test: NCI cytotoxicity (SRB, 48 h), leukemia panel; assay type: cell-based, human; conditions: Leukemia panel average
Protocol: as §1

[7] = system: SR; test: NCI cytotoxicity (SRB, 48 h), SR; assay type: cell-based, human; conditions: leukemia
Protocol: as §1

[8] = system: OVCAR-4; test: NCI cytotoxicity (SRB, 48 h), OVCAR-4; assay type: cell-based, human; conditions: OVCAR-4, ovarian
Protocol: as §1

[9] = system: duplex-form calf thymus DNA (CT-DNA); test: Thermal denaturation studies with calf thymus DNA; assay type: binding; conditions: [PBD]:[DNA] molar ratio 1:5, CT-DNA 100 μM, ligand 20 μM, pH 7.00
Protocol: Compounds have been subjected to thermal denaturation studies with duplex-form calf thymus DNA (CT-DNA) using a modification of a reported procedure. Working solutions in aqueous buffer ([…] NaH2PO4/Na2HPO4, 1 mM Na2EDTA, pH 7.00+0.01). containing CT-DNA (100 μm in phosphate) and the PBD (20 μm) have been prepared by addition of concentrated PBD solutions in DMSO to obtain a fixed [PBD]/[DNA] molar ratio of 1:5. The DNA-PBD solutions have been incubated at 37° C. for 0 and 18 hrs prior to analysis. Samples have been monitored at 260 nm using a Beckman DU-800 spectrophotometer fitted with high performance temperature controller, and heated at 1° C. min^−1 in the 40-110° C. range. DNA helix→coil transition temperatures (Tm) have been obtained from the maxima in the d(A260)/dT derivative plots. Drug-induced alterations in DNA melting behavior are given by: ΔTm=Tm(DNA+PBD)−Tm(DNA alone), where the Tm value for the PBD-free CT-DNA is 68.5±0.01.
The DNA-binding for these novel C8-linked quinazolinone-PBD hybrids has been examined by thermal denaturation studies using calf thymus (CT) DNA. […] Data for 5b, 5c, 5d, and 5k, 5l, 5m and DC-81 are included in Table 5 for comparison.

[10] = system: Non-small cell lung cancer cell lines; test: NCI cytotoxicity (SRB, 48 h), non-small cell lung panel; assay type: cell-based, human; conditions: Non-small-cell lung panel average
Protocol: as §1

[11] = system: sixty human tumour cell lines; test: NCI in vitro cytotoxicity screen (SRB, 48 h), all cell lines; assay type: cell-based; conditions: 48 h exposure
Protocol: as §1

[12] = system: A549/ATCC; test: NCI cytotoxicity (SRB, 48 h), A549/ATCC; assay type: cell-based, human; conditions: non-small cell lung
Protocol: as §1

[13] = system: RXF 393; test: NCI cytotoxicity (SRB, 48 h), RXF 393; assay type: cell-based, human; conditions: RXF 393, renal
Protocol: as §1

COc1cc2c(cc1OCCCCCOc1ccc(-n3c(C)nc4ccccc4c3=O)cc1)N=C[C@@H]1CCCN1C2=O [5d, 7-methoxy-8-{5-[4-(2-methyl-4-oxo-3,4-dihydro-3-quinazolinyl)phenoxy]pentyloxy-}-(11aS)-1,2,3,11a-tetrahydro-5H-pyrrolo[2,1-c][1,4]benzodiazepine-5-one]
GI50 [1]: 330 nM | GI50 [2]: 190 nM | GI50 [3]: 350 nM | GI50 [4]: 150 nM | GI50 [5]: 1090 nM | Log10 GI50 [6]: −6.85 mol/L | Log10 LC50 [6]: −5.30 | GI50 [7]: 110 nM | GI50 [8]: 370 nM | ΔTm after incubation at 37° C. for 0 h ([9]; 0 h): 1.1 °C | ΔTm after incubation at 37° C. for 18 h ([9]; 18 h): 2.3 °C | Log10 GI50 [10]: −6.59 mol/L | Log10 LC50 [10]: −5.02 | GI50 ([11]; bound over all sixty cell lines, read-out: GI50 value against sixty cell lines in nine cell panels): < 1730 nM | Log10 GI50 mean graph midpoint (MG_MID) ([11]; human tumour cell lines): −6.63 | Log10 LC50 mean graph midpoint (MG_MID) ([11]; human tumour cell lines): −5.21 | Log10 TGI mean graph midpoint (MG_MID) ([11]; human tumour cell lines): −6.15 | GI50 [12]: 230 nM | GI50 [13]: 210 nM
